Measurements taken from patent US10760110B2, “Antibiotic testing and screening system” (priority 2017, dated 2020).
Values after ≈ are worked out from the molar mass of the structure shown. Where two headings read alike, the source gives them in different places.

How the values were obtained:
Conditions in all cases: Klebsiella pneumoniae
[1] = system: K. pneumoniae NVT1001 strains with carbapenemase plasmids; experiment: Etest MIC of β-lactams, OmpK35/36 loss, ΔramR and/or carbapenemase (Table 9); format: cell-based, Klebsiella pneumoniae
Procedure, shortened: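 Etest MICs, with values between standard dilutions rounded up to the next two-fold step, were measured in K. pneumoniae NVT1001 carrying PCR-cloned resistance genes on pACYC177 or pACYC184 plasmids. Interpretation used CLSI 2017 breakpoints, CLSI 2015 for cephalothin and EUCAST 2017 for moxifloxacin. For the blaOXA-48 strain, ceftazidime and cefotaxime were additionally tested by CLSI broth microdilution.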

[2] = system: K. pneumoniae NVT1001 and its ΔompK35/36 and/or ΔramR mutants; experiment: Etest MIC, OmpK35/36 loss and AcrAB-TolC overexpression (ΔramR) strains (Table 6); format: cell-based, Klebsiella pneumoniae
Procedure, shortened: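 Etest strips per kit instructions; off-scale intermediate readings rounded upward to the nearest two-fold concentration. Broth microdilution (CLSI) for ceftazidime, cefotaxime only. Breakpoints: CLSI 2017 generally, CLSI 2015 for cephalothin, EUCAST 2017 for moxifloxacin.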

[3] = system: K. pneumoniae NVT1001 ΔramRΔompK35/36 mutant and its revertants; experiment: Etest MIC, ΔramRΔompK35/36 mutant and its revertants (Table 7); format: cell-based

For `CCO/N=C(\C(=O)N[C@@H]1C(=O)N2C(C(=O)[O-])=C(Sc3nc(-c4cc[n+](C)cc4)cs3)CS[C@H]12)c1nsc(N)n1` [Ceftaroline], the MIC ([1]; IMP-8 on pACYC177, WT (NVT1001), read-out: MIC) was 64 µg/mL, the MIC ([1]; IMP-8 on pACYC177, Δ35 (ΔompK35 mutant)) was 64 µg/mL and the MIC ([1]; IMP-8 on pACYC177, Δ35/36 (ΔompK35/36 mutant)) was > 256 µg/mL. For the same compound, the MIC ([1]; IMP-8 on pACYC177, Δ36 (ΔompK36 mutant)) was 64 µg/mL, the MIC ([1]; IMP-8 on pACYC177, ΔramR mutant) was 32 µg/mL and the MIC ([1]; IMP-8 on pACYC177, ΔramRΔ35 (ΔramRΔompK35 mutant)) was 64 µg/mL. The MIC ([1]; IMP-8 on pACYC177, ΔramRΔ35/36 (ΔramRΔompK35/36 mutant)) was 128 µg/mL, the MIC ([1]; IMP-8 on pACYC177, ΔramRΔ36 (ΔramRΔompK36 mutant)) was 64 µg/mL and the MIC ([1]; KPC-2 on pACYC177, WT (NVT1001), read-out: MIC) was 256 µg/mL. For the same compound, the MIC ([1]; KPC-2 on pACYC177, Δ35 (ΔompK35 mutant)) was > 256 µg/mL, the MIC ([1]; KPC-2 on pACYC177, Δ35/36 (ΔompK35/36 mutant)) was > 256 µg/mL and the MIC ([1]; KPC-2 on pACYC177, Δ36 (ΔompK36 mutant)) was > 256 µg/mL. The MIC ([1]; KPC-2 on pACYC177, ΔramR mutant) was > 256 µg/mL, the MIC ([1]; KPC-2 on pACYC177, ΔramRΔ35 (ΔramRΔompK35 mutant)) was > 256 µg/mL and the MIC ([1]; KPC-2 on pACYC177, ΔramRΔ35/36 (ΔramRΔompK35/36 mutant)) was > 256 µg/mL. For the same compound, the MIC ([1]; KPC-2 on pACYC177, ΔramRΔ36 (ΔramRΔompK36 mutant)) was > 256 µg/mL, the MIC ([1]; KPC-3 on pACYC177, WT (NVT1001), read-out: MIC) was 256 µg/mL and the MIC ([1]; KPC-3 on pACYC177, Δ35 (ΔompK35 mutant)) was 256 µg/mL. The MIC ([1]; KPC-3 on pACYC177, Δ35/36 (ΔompK35/36 mutant)) was > 256 µg/mL, the MIC ([1]; KPC-3 on pACYC177, Δ36 (ΔompK36 mutant)) was > 256 µg/mL and the MIC ([1]; KPC-3 on pACYC177, ΔramR mutant) was 256 µg/mL. The MIC ([1]; KPC-3 on pACYC177, ΔramRΔ35 (ΔramRΔompK35 mutant)) was 256 µg/mL, the MIC ([1]; KPC-3 on pACYC177, ΔramRΔ35/36 (ΔramRΔompK35/36 mutant)) was > 256 µg/mL and the MIC ([1]; KPC-3 on pACYC177, ΔramRΔ36 (ΔramRΔompK36 mutant)) was > 256 µg/mL. The MIC ([1]; NDM-1 on pACYC177, WT (NVT1001), read-out: MIC) was > 256 µg/mL, the MIC ([1]; NDM-1 on pACYC177, Δ35 (ΔompK35 mutant)) was > 256 µg/mL and the MIC ([1]; NDM-1 on pACYC177, Δ35/36 (ΔompK35/36 mutant)) was > 256 µg/mL. The MIC ([1]; NDM-1 on pACYC177, Δ36 (ΔompK36 mutant)) was > 256 µg/mL, the MIC ([1]; NDM-1 on pACYC177, ΔramR mutant) was > 256 µg/mL and the MIC ([1]; NDM-1 on pACYC177, ΔramRΔ35 (ΔramRΔompK35 mutant)) was > 256 µg/mL. For the same compound, the MIC ([1]; NDM-1 on pACYC177, ΔramRΔ35/36 (ΔramRΔompK35/36 mutant)) was > 256 µg/mL, the MIC ([1]; NDM-1 on pACYC177, ΔramRΔ36 (ΔramRΔompK36 mutant)) was > 256 µg/mL and the MIC ([1]; OXA-48 on pACYC177, WT (NVT1001), read-out: MIC) was 8 µg/mL. The MIC ([1]; OXA-48 on pACYC177, Δ35 (ΔompK35 mutant)) was 8 µg/mL, the MIC ([1]; OXA-48 on pACYC177, Δ35/36 (ΔompK35/36 mutant)) was 32 µg/mL and the MIC ([1]; OXA-48 on pACYC177, Δ36 (ΔompK36 mutant)) was 8 µg/mL. For the same compound, the MIC ([1]; OXA-48 on pACYC177, ΔramR mutant) was 8 µg/mL, the MIC ([1]; OXA-48 on pACYC177, ΔramRΔ35 (ΔramRΔompK35 mutant)) was 8 µg/mL and the MIC ([1]; OXA-48 on pACYC177, ΔramRΔ35/36 (ΔramRΔompK35/36 mutant)) was 16 µg/mL. For the same compound, the MIC ([1]; OXA-48 on pACYC177, ΔramRΔ36 (ΔramRΔompK36 mutant)) was 8 µg/mL, the MIC ([1]; VIM-1 on pACYC177, WT (NVT1001), read-out: MIC) was 256 µg/mL and the MIC ([1]; VIM-1 on pACYC177, Δ35 (ΔompK35 mutant)) was > 256 µg/mL. For the same compound, the MIC ([1]; VIM-1 on pACYC177, Δ35/36 (ΔompK35/36 mutant)) was > 256 µg/mL, the MIC ([1]; VIM-1 on pACYC177, Δ36 (ΔompK36 mutant)) was > 256 µg/mL and the MIC ([1]; VIM-1 on pACYC177, ΔramR mutant) was > 256 µg/mL. The MIC ([1]; VIM-1 on pACYC177, ΔramRΔ35 (ΔramRΔompK35 mutant)) was > 256 µg/mL, the MIC ([1]; VIM-1 on pACYC177, ΔramRΔ35/36 (ΔramRΔompK35/36 mutant)) was > 256 µg/mL and the MIC ([1]; VIM-1 on pACYC177, ΔramRΔ36 (ΔramRΔompK36 mutant)) was > 256 µg/mL. It also gave an MIC ([1]; no supplemental plasmid, WT (NVT1001), read-out: MIC) of 0.25 µg/mL, an MIC ([1]; no supplemental plasmid, Δ35 (ΔompK35 mutant)) of 0.25 µg/mL and an MIC ([1]; no supplemental plasmid, Δ35/36 (ΔompK35/36 mutant)) of 1 µg/mL. For the same compound, the MIC ([1]; no supplemental plasmid, Δ36 (ΔompK36 mutant)) was 0.5 µg/mL, the MIC ([1]; no supplemental plasmid, ΔramR mutant) was 1 µg/mL and the MIC ([1]; no supplemental plasmid, ΔramRΔ35 (ΔramRΔompK35 mutant)) was 1 µg/mL. For the same compound, the MIC ([1]; no supplemental plasmid, ΔramRΔ35/36 (ΔramRΔompK35/36 mutant)) was 4 µg/mL, the MIC ([1]; no supplemental plasmid, ΔramRΔ36 (ΔramRΔompK36 mutant)) was 4 µg/mL and the MIC ([2]; WT, NVT1001, read-out: MIC) was 0.25 µg/mL (≈ 0.413 µM). The MIC ([2]; Δ35, ΔompK35 mutant) was 0.25 µg/mL (≈ 0.413 µM), the MIC ([2]; Δ35/36, ΔompK35/36 mutant) was 1 µg/mL (≈ 1.65 µM) and the MIC ([2]; Δ36, ΔompK36 mutant) was 0.5 µg/mL (≈ 0.827 µM). The MIC ([2]; ΔramR mutant) was 1 µg/mL (≈ 1.65 µM), the MIC ([2]; ΔramRΔ35, ΔramRΔompK35 mutant) was 1 µg/mL (≈ 1.65 µM) and the MIC ([2]; ΔramRΔ35/36, ΔramRΔompK35/36 mutant) was 4 µg/mL (≈ 6.61 µM). It also gave an MIC ([2]; ΔramRΔ36, ΔramRΔompK36 mutant) of 4 µg/mL (≈ 6.61 µM), an MIC ([3]; ΔramRΔompK35/36::ompK35/36 revertant) of 1 µg/mL and an MIC ([3]; ΔramRΔompK35/36::ompK35 revertant) of 4 µg/mL. It also gave an MIC ([3]; ΔramRΔompK35/36::ompK36 revertant) of 1 µg/mL, an MIC ([3]; ΔramRΔompK35/36::ramR revertant) of 1 µg/mL and an MIC ([3]; ΔramRΔompK35/36::ramR::ompK35/36 revertant) of 0.25 µg/mL. It also gave an MIC ([3]; ΔramRΔompK35/36::ramR::ompK35 revertant) of 0.5 µg/mL, an MIC ([3]; ΔramRΔompK35/36::ramR::ompK36 revertant) of 0.5 µg/mL and an MIC ([3]; ΔramRΔompK35/36 mutant) of 4 µg/mL.
